Values of other authors in US6348490B1, “Dosage forms containing thioctic acid or solid salts of thioctic acid with improved release and bioavailability” (Asta Medica Aktiengesellschaft, priority 1994, dated 2002).

What was measured:
[1] = factor versus racemate
[2] = factor versus racemate; remark: listed apart in the source

SMILES | anti-nociceptive (analgesic) action, factor stronger than that of the racemate [1] | anti-inflammatory action, factor stronger than that of the racemate [2]
O=C(O)CCCC[C@H]1CCSS1 (single isomer, unassigned) [S-enantiomer, S-thioctic acid] | 6 | –
O=C(O)CCCC[C@@H]1CCSS1 [R-Thioctic acid, R-thioctic acid] | – | 10
